Measurements published in US20080280886A1, “SUBSTITUTED UREAS” (AUSPEX PHARMACEUTICALS, INC., priority 2007, published 2008).

Experiments:
dopamine release = conditions: Li et al. 2005; cited from earlier work
[1] = system: hyperactivity induced by NMDA receptor antagonist MK-801; conditions: Vanover et al. 2006; cited from earlier work
[2] = system: DOI-induced head twitches; conditions: rodent; Vanover et al. 2006; cited from earlier work
[3] = In vitro liver microsomal stability assay; type: in vitro ADME; conditions: 1 mg per mL liver microsome protein, NADPH-generating system, 5 microgram per mL compound, 37° C., 0-60 min, LC/MS/MS
Protocol: Liver microsomal stability assays are conducted at 1 mg per mL liver microsome protein with an NADPH-generating system in 2% NaHCO3 (2.2 mM NADPH, 25.6 mM glucose 6-phosphate, 6 units per mL glucose 6-phosphate dehydrogenase and 3.3 mM MgCl2). Test compounds are prepared as solutions in 20% acetonitrile-water and added to the assay mixture (final assay concentration 5 microgram per mL) and incubated at 37° C. Final concentration of acetonitrile in the assay should be <1%. Aliquots (50 μL) are taken out at times 0, 15, 30, 45, and 60 min, and diluted with ice cold acetonitrile (200 μL) to stop the reactions. Samples are centrifuged at 12,000 RPM for 10 min to precipitate proteins. Supernatants are transferred to microcentrifuge tubes and stored for LC/MS/MS analysis of the degradation half-life of the test compounds.

CC(C)COc1ccc(CNC(=O)N(Cc2ccc(F)cc2)C2CCN(C)CC2)cc1 [Pimavanserin, 1-(4-fluoro-benzyl)-3-(4-isobutoxy-benzyl)-1-(1-methyl-piperidin-4-yl)-urea]
dopamine release when combined with haloperidol (dopamine release): potentiate dopamine release | hyperactivity induced by MK-801 (dozocilpine) [1]: attenuate hyperactivity | DOI-induced head twitches [2]: reduce

[2H]C([2H])(NC(=O)N(C1CCN(C([2H])([2H])[2H])CC1)C([2H])([2H])c1ccc(F)cc1)c1ccc(OC([2H])([2H])C(C)C)cc1 [Example 3, d9-1-(4-Fluorobenzyl)-3-(4-isobutoxybenzyl)-1-(1-methylpiperidin-4-yl)urea hemi-tartrate]
increase in degradation half-life as compared to the non-isotopically enriched drug (Pimavanserin) [3]: 17%
